Test results: US20040018560A1, “Crystallized LXR polypeptide in complex with a ligand and screening methods employing same” (priority 2002, published 2004)
Residue numbers refer to the chain shown, from its start. One block for each molecule: values may come before it.

T1: human LXRα LBD (Homo sapiens, UniProt Q13133, H421A)
T1 construct: LXRα (amino acids 164-447); expressed in transfected cells; host or cells: CV-1 cells
T1 sequence (Q13133 164-447 H421A): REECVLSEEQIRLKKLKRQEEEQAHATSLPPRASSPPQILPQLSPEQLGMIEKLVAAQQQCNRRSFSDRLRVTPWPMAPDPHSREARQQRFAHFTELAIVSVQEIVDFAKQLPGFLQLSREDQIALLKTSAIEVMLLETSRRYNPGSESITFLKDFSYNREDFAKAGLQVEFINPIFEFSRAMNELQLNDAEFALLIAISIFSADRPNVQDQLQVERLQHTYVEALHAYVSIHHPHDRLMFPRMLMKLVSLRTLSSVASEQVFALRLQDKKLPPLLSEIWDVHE

T2: human LXRβ LBD (Homo sapiens, UniProt P55055, H434A)
T2 construct: LXRβ (amino acids 155-462); expressed in transfected cells; host or cells: CV-1 cells
T2 sequence (P55055 155-460 H434A): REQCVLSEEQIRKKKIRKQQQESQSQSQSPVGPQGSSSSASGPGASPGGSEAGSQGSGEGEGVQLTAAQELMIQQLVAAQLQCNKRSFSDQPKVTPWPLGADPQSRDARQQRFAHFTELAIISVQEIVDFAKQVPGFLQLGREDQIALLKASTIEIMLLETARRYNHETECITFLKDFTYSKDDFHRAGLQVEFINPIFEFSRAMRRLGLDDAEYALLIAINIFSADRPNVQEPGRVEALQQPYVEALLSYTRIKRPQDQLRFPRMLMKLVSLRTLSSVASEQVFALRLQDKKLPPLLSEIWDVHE

T3: human LXRβ LBD (Homo sapiens, UniProt P55055, Y334W)
T3 construct: LXRβ (amino acids 155-462); expressed in transfected cells; host or cells: CV-1 cells
T3 sequence (P55055 155-460 Y334W): T2 sequence (P55055 155-460 H434A) with Y180W, A280H

B1: human LXRβ LBD (ligand binding domain) containing amino acids 214-462 (receptor)
chain: GSEGEGVQLTAAQELMIQQLVAAQLQCNKRSFSDQPKVTPWPLGADPQSRDARQQRFAHFTELAIISVQEIVDFAKQVPGFLQLGREDQIALLKASTIEIMLLETARRYNHETECITFLKDFTYSKDDFHRAGLQVEFINPIFEFSRAMRRLGLDDAEYALLIAINIFSADRPNVQEPGRVEALQQPYVEALLSYTRIKRPQDQLRFPRMLMKLVSLRTLSSVHSEQVFALRLQDKKLPPLLSEIWDVHE
notes: It is entered here as the monomer, so that self-association is the pair m1-m1; also called LXR LBD

How the values were obtained:
human LXRα LBD = molecular target: T1, human LXRα LBD; assay: Gal4-LXRα LBD (wild type and mutant) transactivation, SPAP reporter, transient transfection in CV-1 cells; type: cell-based; conditions: compound 10 μM, 18 hours
Description: FIG. 7A is a bar graph depicting the effect of mutating LXR LBD pocket residues on transcriptional activity, which was determined by measuring the amount of SPAP synthesized in CV-1 cells by a transiently transfected Gal4 fusion of LXRα LBD.
(§1) To explore these differences, site directed mutants were made targeting specific pocket residues that interacted more directly with one compound than the other. […] However, the gauche conformation of I317 extended into a pocket near the beta turn. […] By contrast, O3 of EPC extended into a hydrophilic pocket (see FIG. 6B) which includes residues E281 (E267α), E315 (E301α), and R319 (R305α). Mutations in this region permit identification of the necessary polar interactions for EPC binding. The transactivation capability of gal4-fusions of wild-type and mutant LXRα and LXRβ LBDs were measured by their ability to transcribe secreted placental alkaline phosphatase (SPAP) on a UAS-tk promoter in transient transfection experiments in CV-1 cells. See Laboratory Example 4. […]
(§2) Wild type and mutant LXR transactivation activity was measured in CV-1 cells. […]
(§3) Alkaline phosphatase activity was assayed by adding 200 μl substrate (7 mM p-nitrophenyl phosphate in 1 M diethanolamine/0.28 M sodium chloride/0.5 mM magnesium chloride, pH 9.85) to each well of the plates, incubating at room temperature, and reading absorbance at 405 nm. […]

human LXRβ LBD [1] = molecular target: T2, human LXRβ LBD; assay: Gal4-LXRβ LBD (wild type and mutant) transactivation, SPAP reporter, transient transfection in CV-1 cells; type: cell-based; conditions: LXRβ H435A mutant LBD, compound 10 μM, 18 hours
Description: (§4) FIG. 7B is a bar graph depicting the effect of mutating LXR LBD pocket residues on transcriptional activity, which was determined by measuring the amount of SPAP synthesized in CV-1 cells by a transiently transfected Gal4 fusion of LXRβ LBD.
as §1, §2, §3

human LXRβ LBD [2] = molecular target: T3, human LXRβ LBD; assay: as above; type: cell-based; conditions: LXRβ Y335W mutant LBD, compound 10 μM, 18 hours
Description: as §4, §1, §2, §3

LXR [3] = assay: LXR activation (general statements, literature)
LXR [4] = assay: Ligand binding to LXR
LXR [5] = conditions: both LXR subtypes; compared with the natural ligands; cited from earlier work
LXR [6] = assay: Co-activator recruitment by LXR; type: biochemical
[7] = molecular target: the molecule itself; assay: X-ray crystal structures, homodimer in the asymmetric unit
[8] = molecular target: B1; assay: X-ray co-crystal structure, LXRβ LBD with EPC and SRC1 peptide
Description: Crystallization trials were carried out using the hanging drop method by mixing 2 μl of protein solution with 2 μl of well buffer. Both the LXRβ/ligand complexes crystallized out of 10-12% PEG 3350-8000 with 0.2M salt at 40° C. Usable LXRβ/T0901317 crystals were obtained from a number of salts including NaF, KF, NaCl, KCl, Na formate, Na acetate, and K acetate. The best LXRβ/EPC (24(S), 25-epoxycholesterol) crystals were obtained with ammonium sulfate and lithium sulfate salts. All crystals took 4-6 weeks to grow. Crystals were frozen in LN₂ after transferring stepwise to a cryo buffer containing the well buffer with 30% PEG 400.

transcriptional activity (SPAP) with H421A mutant (human LXRα LBD): completely knocked out the activity
transcriptional activity (SPAP) with H435A mutant (human LXRβ LBD [1]): completely knocked out the activity
transcriptional activity (SPAP) with Y335W mutant (human LXRβ LBD [2]): some modulation
binding to LXR (LXR [4]): bound tightly
Molecule: O=S(=O)(c1ccccc1)N(CC(F)(F)F)c1ccc(C(O)(C(F)(F)F)C(F)(F)F)cc1 [T317, N-(2,2,2-trifluoroethyl)-N-[4-(2,2,2-trifluoro-1-hydroxy-1-trifluoromethyl-ethyl)-phenyl]-benzenesulfonamide]
efficacy of LXR activation (LXR [3]): efficacious
potency in activating both LXRs (LXR [5]): as potent

binding to LXR (LXR [4]): do bind to LXR
Molecule: CC(C)CCC[C@@H](C)[C@H]1CC[C@H]2[C@@H]3CC=C4C[C@@H](O)CC[C@]4(C)[C@H]3CC[C@]12C [cholesterol]
recruitment of co-activator (LXR [6]): do not recruit co-activator

Molecule: B1
binding result [7]: binds

binding result [8]: binds
Molecule: CPSSHSSLTERHKILHRLLQQGSPS (also called SRC1(2); SRC peptide) [SRC1 peptide (second LXXLL motif of the nuclear receptor co-activator SRC-1)]
